Results from patent publication US20060135624A1, “Natural compound useful for treating diabetes, its preparation and use” (JINGYU LIANG ET AL, priority 2002, published 2006).

Experiments:
[1] = tested on: mouse hyperglycemia induced by glucose; experiment: Effect of Sequoyitol on mouse hyperglycemia induced by glucose; assay type: in vivo, Kunming mice
Protocol: 1. Experimental Method^[4] • 72 Mice were randomly divided into 6 groups, […] according to 0.1 ml/10 g of body weight, respectively, and the normal group and modeling group were administrated with the same volum of distilled water. These administrations were conducted for continuous 7 days. The normal group was administrated with the same volum of physiological saline by injection, while other groups were administrated with […] of glucose by intra-abdominal injection. After 30, 60, 90 and 120 minutes of administration, bloods were collected from venous plexus behind fossa orbitalis, the serums were separated, and the blood-sugar levels were separately detected by glucose oxidase method.

normal mice = experiment: Test of acute toxicity by intravenous administration; assay type: in vivo; conditions: 5.04 g/kg intravenous injection
Description: 1) Experimental Method • 20 Normal mice (half male and half female) were administrated with 5.04 g/kg Sequoyitol (which reached the maximum concentration and the maximum intravenous administration volume) by intravenous injection. The animals' responses were observed. The mice were executed after 14 days, and their organs were macroscopically observed.

[2] = tested on: mouse hyperglycemia induced by Streptozocin; experiment: Effect of Sequoyitol on mouse hyperglycemia induced by Streptozocin; assay type: in vivo, Kunming mice
Protocol: 1. Experimental Methods^[7,8] • Among 66 mice, 10 mice were randomly selected as normal group, and the residual mice were administrated with 160 mg/kg Streptozocin by vena caudalis injection, modeled according to methods of documents, and divided into 5 groups according to blood-sugar level, wherein 4 groups were perorally administrated with 25, 50 and 100 mg/kg of Sequoyitol and 75 mg/kg of phenformine according to 0.1 ml/10 g of body weight, respectively, and the normal group and modeling group were administrated with the same volum of distilled water. These administrations were conducted for continuous 18 days. The blood-sugar levels of the mice were separately measured at 6th and 12th day after the administration. At the 18th day, blood was collected by excising eyeballs, serum was separated, and the blood sugar level, insulin level, cholesterol content, triglyceride content, malonaldehyde content, and hepatocuprein activity of serum were measured; liver tissue was homogenated, and the malonaldehyde content and hepatocuprein activity of liver tissue were measured; and pancreatic gland was soaked in 10% formalin, embedded with paraffin, sliced, and dyed with HE.

[3] = tested on: blood-sugar level of normal mice; experiment: Effect of Sequoyitol on blood-sugar level of normal mice; assay type: in vivo, Kunming mice; conditions: Sequoyitol groups (25, 50, 100 mg/kg) oral 7 days
Protocol: 1. Experimental Method^[3] • 60 Mice were randomly divided into 5 groups, […] according to 0.1 ml/10 g of body weight, respectively, and the normal group was administrated with the same volum of the same volum of distilled water. These administrations were conducted for continuous 7 days. The blood-sugar levels were detected by glucose oxidase method.

rats = experiment: General pharmacology in rats; conditions: rat, in vivo
Description: • 1. Guidelines for Studying New Drugs (Pharmacy, Pharmacology, Toxicology), Bureau of Drug Administration, the Ministry of Health of the People's Republic of China • 2. Chen Q I, Methodology for Studying Pharmacology of Chinese Medicine, People' Medical Publishing House, 1st Edition, 1993, 118-119 III. Studies on General Pharmacology • The effects of Sequoyitol on general physical signs and spontaneous movement of normal mice, on Pentobarbital hours of sleep of mice, and on respiratory movement, blood pressure, cardiac rhythm and electrocardiogram of rats were observed.

[4] = tested on: mouse hyperglycemia induced by adrenalin; experiment: Effect of Sequoyitol on mouse hyperglycemia induced by adrenalin; assay type: in vivo, Kunming mice; conditions: for hepatic glycogen level increased compared to the control group: adrenalin model; for blood-sugar level decreased compared to the control group: 30 minutes after adrenalin 0.2 mg/kg i.p.
Protocol: 1. Experimental Methods^[3] • 72 Mice were randomly divided into 6 groups, wherein 4 groups were orally administrated with 25, 50 and 100 mg/kg of Sequoyitol and 10 mg/kg of Glibenclamide according to 0,1 ml/10 g of body weight, respectively, and the normal group and modeling group were administrated with the same volum of distilled water. These administrations were conducted for continuous 7 days. The normal group was administrated with the same volum of physiological saline by injection, while other groups were administrated with 0.2 mg/kg of adrenalin by intra-abdominal injection. The blood-sugar levels were detected by glucose oxidase method after 30 minutes of administration. The livers of the mice were collected, and hepatic glycogen levels were detected by anthrone method.

[5] = 25 and 50 mg/kg Sequoyitol groups, p.o. 18 days
[6] = Sequoyitol 100 mg/kg p.o. 18 days
[7] = Sequoyitol groups (25, 50, 100 mg/kg p.o. 18 days)
[8] = Sequoyitol 25 mg/kg oral 7 days
[9] = Sequoyitol 100 mg/kg oral 7 days

## COC1C(O)C(O)C(O)C(O)C1O (stereo not drawn) [Sequoyitol, 5-O-methyl-myo-inositol]
[1]; 100 mg/kg Sequoyitol vs 75 mg/kg phenformine
  effect for alleviating hyperglycemia compared with phenformine: equivalent to that of 75 mg/kg phenformine
[1]; 25 and 50 mg/kg Sequoyitol groups, oral 7 days, 30, 60, 90 minutes after i.p. glucose
  glucose-induced hyperglycemia compared to the control group: significantly alleviated
[1]; Sequoyitol 100 mg/kg oral 7 days, 30, 60, 90, 120 minutes after i.p. glucose
  glucose-induced hyperglycemia compared to the control group: highly significantly alleviated
[1]; Sequoyitol 100 mg/kg oral 7 days, 90 minutes after i.p. glucose
  blood-sugar level decreased compared to the control group: 24.5 mg/dL
Normal mice; executed after 14 days
  main organs under macroscopic observation: free of abnormality
Normal mice; observed 14 days
  animals' responses after intravenous injection: better health status, gloss fur, bright eyes, and good rang of motion
[2]; [5]
  content of cholesterol in serum compared to the control group: decreased
  content of malonaldehyde in liver tissue compared to the control group: significantly decreased
  content of triglyceride in serum compared to the control group: significantly decreased
[2]; 50 and 100 mg/kg Sequoyitol groups, p.o. 18 days
  serum insulin level compared to the control group: significantly increased
[2]; 50 and 100 mg/kg Sequoyitol groups, p.o., since the 7th day
  body weight of diabetes mice compared to the control group: significantly increased
[2]; Sequoyitol 25 mg/kg p.o. 18 days
  serum insulin level compared to the control group: increased
[2]; Sequoyitol 25 mg/kg p.o., since the 11th day
  body weight of diabetes mice compared to the control group: increased
[2]; Sequoyitol 50 mg/kg p.o., 12th day
  blood-sugar level decreased compared to the control group: 121.4 mg/dL
[2]; [6]
  content of cholesterol in serum compared to the control group: significantly decreased
  content of malonaldehyde in liver tissue compared to the control group: highly significantly decreased
  content of triglyceride in serum compared to the control group: highly significantly decreased
  hyalinization of interstitial small vessels (histopathologic examination): alleviated
  serum insulin level increased compared to the control group: 6.53 μlU/ml
[2]; [7]
  activity of hepatocuprein in serum compared to the control group: highly significantly increased
  inflammatory cell infiltration (histopathologic examination): inhibited
  number of pancreatic islands and number of cells in pancreatic islands (histopathologic examination) compared to the model group: increased significantly
[3]
  blood-sugar level compared with the normal group: not significantly different
rats
  effect on blood pressure of rats: did not significantly affect
  effect on cardiac rhythm of rats: did not significantly affect
  effect on electrocardiogram of rats: did not significantly affect
  effect on respiratory movement of rats: did not significantly affect
[4]; Sequoyitol 20 mg/kg (so in the source) oral 7 days
  hepatic glycogen level increased compared to the control group: 1.24 mg/g of liver tissue
[4]; [8]
  blood-sugar level decreased compared to the control group: 32.2 mg/dL
  hepatic glycogen level increased compared to the control group: 1.76 mg/g of liver tissue
[4]; Sequoyitol 50 mg/kg oral 7 days
  blood-sugar level decreased compared to the control group: 35.5 mg/dL
[4]; [9]
  blood-sugar level decreased compared to the control group: 39.9 mg/dL
  hepatic glycogen level increased compared to the control group: 1.24 mg/g of liver tissue
